Here are results for five molecules from patent publication US9145418B2, “Substituted 3,4-dihydropyrrolo[1,2-a]pyrazin-1(2H)-ones as protein kinase inhibitors” (NERVIANO MEDICAL SCIENCES S.R.L., priority 2011, dated 2015).

One test concerns the target Full-length human PIM1 (Homo sapiens (Human), UniProt P11309). The experiment in a line: Biochemical assay for inhibitors of PIM1 kinase activity (33P trans-phosphorylation, Dowex). The following applies: ATP 200 μM, Aktide 25 μM, enzyme 1 nM; read-out: PIM-1 IC50. Here is the method: The short forms and abbreviations used herein have the following meaning: • Ci Curie • DMSO dimethylsulfoxide • KDa kiloDalton • microCi microCurie • mg milligram • microg microgram • ng nanogram • L liter • mL milliliter • μL microliter • M molar • mM millimolar • μM micromolar • nM nanomolar Biochemical Assay for Inhibitors of PIM1 Kinase Activity
The inhibitory activity of putative kinase inhibitors and the potency of selected compounds were determined using a trans-phosphorylation assay.
Specific peptide or protein substrates are trans-phosphorylated by their specific ser-thr or tyr kinase in the presence of ATP traced with ^33P-γ-ATP, and in the presence of their own optimal buffer and cofactors.
At the end of the phosphorylation reaction, more than 98% unlabeled ATP and radioactive ATP is captured by an excess of the ion exchange Dowex resin; the resin then settles down to the bottom of the reaction plate by gravity. Supernatant is subsequently withdrawn and transferred into a counting plate, then evaluated by β-counting.
The buffer for PIM1 assay was composed of HEPES 50 mM, at pH 7.5, with 10 mM MgCl2, 1 mM DTT, 3 μM NaVO3, and 0.2 mg/mL BSA.
Full-length human PIM1 was expressed and purified as described in Bullock A N, et al., J. Biol. Chem. 2005, 280, 41675-82.
ATP concentration: 200 μM
Enzyme concentration: 1 nM
Substrate concentration Aktide (Chemical Abstract Service Registry Number 324029-01-8): 25 μM
The test mix consisted of: • 1) 3× Enzyme mix (done in Kinase Buffer 3×), 5 μL/well • 2) 3× substrate and ATP mix (done in ddH2O), together with ^33P-γ-ATP, 5 μL/well • 3) 3× test compounds (diluted into ddH2O-3% DMSO)—5 μL/well
An automated station (Biomek FX, Beckman) was used for serial dilutions, producing 1:3 dilutions in 100% DMSO, from line A1 to A10, for all the compounds in the column. […] In a standard experiment, the highest concentration (3×) of compounds is typically 30 μM, while the lowest one is typically 1.5 nM. Each 384-well plate generates at least one curve of the standard inhibitor staurosporine and reference wells (total enzyme activity vs. no enzymatic activity) for evaluation of Z′ and signal to background (SIB) ratio.
384-well plates, V bottom (test plates) are prepared with 5 μl of compound diluted as previously described (3×) and then placed onto a PlateTrak 12 robotized station (Perkin Elmer; the robot has one 384-tip pipetting head for assay start, plus one 96-tip head for dispensing resin) together with one reservoir for Enzyme mix (3×) and one for ATP mix (3×).
Data are analyzed by an internally customized version of the “Assay Explorer” SW package, which provides sigmoidal fitting of the ten-dilution curves for IC50 determination in secondary assay/hit confirmation routines.

Test [1] deals with MV-4-11 (biphenotypic B myelomonocytic leukemia) cells. The experiment in a line: In vitro cell proliferation assay (CellTiter-Glo). The following applies: Homo sapiens, MV4-11, MV-4-11 cells, 72 hours. The test is classed as cell-based. Here is the method: In vitro Cell Proliferation Assay
MV-4-11 (biphenotypic B myelomonocytic leukemia) cells (1250 cells/well) were seeded in white 384 well-plates in complete medium (RPMI 1640 or EMEM plus 10% Fetal bovine serum) and treated with compounds dissolved in 0.1% DMSO, 24 h after seeding. The cells were incubated at 37° C. and 5% CO2 and after 72 hours the plates were processed using CellTiter-Glo assay (Promega) following the manufacturer's instruction.
CellTiter-Glo is a homogenous method based on the quantification of the ATP present, an indicator of metabolically active cells. ATP is quantified using a system based on luciferase and D-luciferin resulting into light generation. The luminescent signal is proportional to the number of cells present in culture.
Briefly 25 μl/well reagent solution were added to each wells and after 5 minutes shacking microplates were red by Envision (PerkinElmer) luminometer. The luminescent signal was proportional to the number of cells present in culture.
Inhibitory activity was evaluated comparing treated versus control data using Assay Explorer (MDL) program. IC50 was calculated using sigmoidal interpolation curve.

The target of a further test is Full-length human PIM2 (Homo sapiens (Human), UniProt Q9P1W9). The experiment in a line: PIM2 kinase inhibition assay: Dowex technique. The test is classed as biochemical. The following applies: ATP 4 μM, Aktide 5 μM, enzyme 1.5 nM; read-out: PIM-2 IC50. The procedure: Method for PIM2 Kinase Inhibition Assay: Dowex Technique
Full-length human PIM2, sequence (Q9P1W9 whole entry): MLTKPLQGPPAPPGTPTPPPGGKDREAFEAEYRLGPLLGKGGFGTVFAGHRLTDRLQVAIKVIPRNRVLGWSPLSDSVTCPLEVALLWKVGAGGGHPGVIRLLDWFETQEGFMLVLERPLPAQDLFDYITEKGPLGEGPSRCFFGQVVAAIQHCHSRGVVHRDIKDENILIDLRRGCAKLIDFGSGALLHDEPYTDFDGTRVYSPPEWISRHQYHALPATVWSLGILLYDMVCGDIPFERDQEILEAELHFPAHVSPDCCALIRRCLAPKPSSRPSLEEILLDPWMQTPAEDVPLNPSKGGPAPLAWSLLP
The buffer for PIM2 assay was composed of HEPES 50 mM, at pH 7.5, with 1 mM MgCl2, 1 mM DTT, 3 μM Na3VO4, and 0.2 mg/mL BSA.
Full-length human PIM2 was expressed and purified as described in Fedorov O, et al., PNAS 2007 104, 51, 20523-28.
Enzyme concentration=1.5 nM
Aktide substrate (Chemical Abstract Service Registry Number 324029-01-8)=5 μM
See above: same procedure as described for PIM1.

Full-length human PIM1, sequence (P11309 whole entry): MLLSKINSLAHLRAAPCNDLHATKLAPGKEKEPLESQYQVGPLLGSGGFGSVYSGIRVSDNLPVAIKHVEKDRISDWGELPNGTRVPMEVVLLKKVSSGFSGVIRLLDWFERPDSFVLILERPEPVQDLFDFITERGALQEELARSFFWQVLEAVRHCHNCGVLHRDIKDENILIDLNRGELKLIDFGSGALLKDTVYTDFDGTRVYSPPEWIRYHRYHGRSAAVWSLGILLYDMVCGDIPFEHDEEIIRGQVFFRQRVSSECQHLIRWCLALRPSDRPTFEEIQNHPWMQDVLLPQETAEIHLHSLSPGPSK

As to `CN1CCN(C[C@@H](NC(=O)C[C@H]2CNC(=O)c3cc(-c4cccc(Cl)c4)cn32)C2CCCCC2)CC1` [Compound 2, 2-[(4S)-7-(3-chlorophenyl)-1-oxo-1,2,3,4-tetrahydropyrrolo[1,2-a]pyrazin-4-yl]-N-[(1S)-1-cyclohexyl-2-(4-methylpiperazin-1-yl)ethyl]acetamide], the IC50 (commonly the concentration at which inhibition is half-maximal) turned out to be 1 nM at Full-length human PIM1 and 1530 nM in test [1].

Turning to `CN(C)C1CCN(C[C@@H](NC(=O)C[C@H]2CNC(=O)c3cc(-c4ccc(F)c(F)c4)cn32)C2CCCCC2)CC1` [Compound 6, N-{(1S)-1-cyclohexyl-2-[4-(dimethylamino)piperidin-1-yl]ethyl}-2-[(4S)-7-(3,4-difluorophenyl)-1-oxo-1,2,3,4-tetrahydropyrrolo[1,2-a]pyrazin-4-yl]acetamide], the figures for the IC50 (at Full-length human PIM1; on Full-length human PIM2; in test [1]) were 8 nM, 171 nM and 3150 nM, respectively.

As for `CN1CCN(C[C@@H](NC(=O)C[C@H]2CNC(=O)c3cc(-c4cc(Cl)ccc4F)cn32)C2CCCCC2)CC1` [Compound 26, 2-[(4S)-7-(5-chloro-2-fluorophenyl)-1-oxo-1,2,3,4-tetrahydropyrrolo[1,2-a]pyrazin-4-yl]-N-[(1S)-1-cyclohexyl-2-(4-methylpiperazin-1-yl)ethyl]acetamide], the IC50 at Full-length human PIM1 came out at 2 nM; at Full-length human PIM2, 132 nM; in test [1] it was 1160 nM.

Turning to `CN(C)C1CCN(C[C@@H](NC(=O)C[C@H]2CNC(=O)c3cc(-c4ccnc(F)c4)cn32)C2CCCCC2)CC1` [Compound 10, N-{(1S)-1-cyclohexyl-2-[4-(dimethylamino)piperidin-1-yl]ethyl}-2-[(4S)-7-(2-fluoropyridin-4-yl)-1-oxo-1,2,3,4-tetrahydropyrrolo[1,2-a]pyrazin-4-yl]acetamide], the half-inhibitory concentration (IC50) turned out to be 6 nM at Full-length human PIM1, 57 nM on Full-length human PIM2 and 6750 nM in test [1].

Turning to `CN(C)C1CCN(C[C@@H](NC(=O)C[C@H]2CNC(=O)c3cc(-c4cccc(Cl)c4)cn32)C2CCCCC2)CC1` [Compound 23, 2-[(4S)-7-(3-chlorophenyl)-1-oxo-1,2,3,4-tetrahydropyrrolo[1,2-a]pyrazin-4-yl]-N-{(1S)-1-cyclohexyl-2-[4-(dimethylamino)piperidin-1-yl]ethyl}acetamide], the IC50 came out at 1 nM on Full-length human PIM1, 36 nM at Full-length human PIM2 and 1130 nM in test [1].
